How the values were obtained:
[1] = Exploratory toxicity study in dogs; assay type: in vivo; conditions: 0.5 mg/kg/dose QOD
[2] = system: GA0087 gastric NEC patient-derived xenograft; assay: Efficacy in GA0087 gastric neuroendocrine carcinoma PDX model; conditions: for Median Tumor Volumes Day 46: head prints Day 46, title Day 53
[3] = Hemodynamic and ECG parameters in anesthetized guinea pigs (IV infusion); conditions: for mean plasma concentration at end of infusion: 10 minutes
Method: The effects of Compound Aon hemodynamic and ECG parameters were examined in anesthetized, male Dunkin Hartley guinea pigs. […] An escalating dose design was utilized in which doses were administered sequentially at 20-minute intervals. Animals were monitored throughout the experiment.

[4] = system: Salmonella typhimurium TA98 and TA100 strains; assay: Bacterial reverse mutation assay; assay type: cell-based; conditions: up to 500 μg/mL; in presence and absence of S9
[5] = system: ST18 and FREM2 expression in MKL-1 tumors; assay: In vivo xenograft dose-response of PD biomarker gene expression, MKL-1; parameters: species or system mice; conditions: 1, 2.5, or 5 mg/kg PO BID ×4.5; tumors 4 h after last dose
Description: (§1) Female NSG mice bearing palpable hMCC MKL-1 and MS-1 tumors were randomized into four groups of three mice each. […] The fourth group was orally administered vehicle as a control on the BID schedule. Four hours after the last dosing, tumors were collected into RNA later and stored frozen.
(§2) Total RNA was eluted in RNase-free water and analyzed by qRT-PCR.

[6] = QW 1.25 mg oral dose, 60-kg human, 80% oral bioavailability assumed
MS-1 hMCC xenograft = assay: Efficacy in MS-1 hMCC xenograft (NSG mice); assay type: in vivo; conditions: 5 mg/kg PO 5 on/2 off; head prints Day-15, TGI analysis on Day 36
[7] = Pharmacokinetics after single IV and oral dose, Sprague Dawley rats; assay type: in vivo; conditions: Rat, female
Method: AUClast=area under the plasma concentration-time curve from time zero to time of last measurable concentration; Cmax=maximum plasma concentration; F=oral bioavailability; hr=hour, PK=pharmacokinetic; SD=standard deviation; t1/2 z=apparent half-life of the terminal phase of the concentration-time curve; tmax=time of Cmax. In mouse, PK parameters were determined using composite plasma samples obtained from n=3animals/time point. In other species, PK parameters are from n=3 animals and values shown are mean and SD (in parentheses).

[8] = system: gene expression (ST18, FREM2) in MS-1 cells; assay: Gene expression modulation (RNA-seq, qRT-PCR) in cultured MS-1 cells; assay type: cell-based, human; conditions: 10 and 100 nM, three days
Method: 22, 66, or 200 nM for qRT-PCR analysis.
Libraries were sequenced on an Illumina NextSeq® 500 System (Illumina, San Diego, Calif.) using 75 base paired-end RNA sequencing. Sequenced reads were mapped to the hg19 human genome build and differential expression was determined by analysis of variance across all replicates relative to the vehicle control
Sequenced reads were mapped to the hg19 human genome build using the Spliced Transcripts Alignment to a Reference (STAR) software tool (©Alexander Dobin, 2009-2016) and transcript counts were normalized using the Empirical Analysis of Digital Gene Expression Data in R (edgeR) and Differential gene expression analysis based on the negative binomial distribution (DESeq2) software tools (©Bioconductor, 2003-2017). Differential expression was determined by analysis of variance across all replicates relative to the vehicle control.

[9] = system: LU2514 SCLC patient-derived xenograft; assay: Efficacy in LU2514 HuPrime SCLC PDX model; assay type: in vivo, mice; conditions: Day 28
Method: Tumor growth inhibition analysis was performed on Day 28 post treatment, the last day of dosing.
In both studies with LU2514 animal model.

[10] = 4-week toxicity study with 4-week recovery in mice; assay type: in vivo; conditions: for AUC0-24 / Cmax: Mice
[11] = system: ST18 and FREM2 expression in MS-1 tumors; assay: In vivo xenograft dose-response of PD biomarker gene expression, MS-1; parameters: species or system mice; conditions: 1, 2.5, or 5 mg/kg PO BID ×4.5; tumors 4 h after last dose
Description: as §1, §2

[12] = system: LXFS 573 SCLC patient-derived xenograft; assay: Efficacy in LXFS 573 SCLC PDX model; assay type: in vivo, mice; conditions: for % TGI / TGI: Day 28
[13] = target: MDR1 (human P-gp) MDCK cells (Homo sapiens (Human), UniProt P08183); assay: Permeability in MDR1 (human P-gp) MDCK cells; conditions: B→A direction
[14] = after escalating IV doses to 20 mg base/kg
[15] = 5 mg base/kg/dose QD×5/week, females
[16] = 5 mg base/kg/dose QD×5/week, males
[17] = 25 mg base/kg/dose QOD×3/week, females
[18] = 45 mg base/kg/dose QD×5/week, females
[19] = 45 mg base/kg/dose QD×5/week, males
[20] = Day 1, 15 mg base/kg/dose oral, 5 days on/2 days off, F
[21] = Day 26, 5 mg base/kg/dose oral, 5 days on/2 days off, F
[22] = Day 26, 5 mg base/kg/dose oral, 5 days on/2 days off, M
[23] = Day 26, 15 mg base/kg/dose oral, 5 days on/2 days off, M
[24] = Day 26, 25 mg base/kg/dose oral, QOD × 3/week, F
[25] = Day 26, 25 mg base/kg/dose oral, QOD × 3/week, M
[26] = Day 26, 45 mg base/kg/dose oral, 5 days on/2 days off, F
[27] = Day 26, 45 mg base/kg/dose oral, 5 days on/2 days off, M

Chain of MDR1 (human P-gp) MDCK cells (P08183 whole entry): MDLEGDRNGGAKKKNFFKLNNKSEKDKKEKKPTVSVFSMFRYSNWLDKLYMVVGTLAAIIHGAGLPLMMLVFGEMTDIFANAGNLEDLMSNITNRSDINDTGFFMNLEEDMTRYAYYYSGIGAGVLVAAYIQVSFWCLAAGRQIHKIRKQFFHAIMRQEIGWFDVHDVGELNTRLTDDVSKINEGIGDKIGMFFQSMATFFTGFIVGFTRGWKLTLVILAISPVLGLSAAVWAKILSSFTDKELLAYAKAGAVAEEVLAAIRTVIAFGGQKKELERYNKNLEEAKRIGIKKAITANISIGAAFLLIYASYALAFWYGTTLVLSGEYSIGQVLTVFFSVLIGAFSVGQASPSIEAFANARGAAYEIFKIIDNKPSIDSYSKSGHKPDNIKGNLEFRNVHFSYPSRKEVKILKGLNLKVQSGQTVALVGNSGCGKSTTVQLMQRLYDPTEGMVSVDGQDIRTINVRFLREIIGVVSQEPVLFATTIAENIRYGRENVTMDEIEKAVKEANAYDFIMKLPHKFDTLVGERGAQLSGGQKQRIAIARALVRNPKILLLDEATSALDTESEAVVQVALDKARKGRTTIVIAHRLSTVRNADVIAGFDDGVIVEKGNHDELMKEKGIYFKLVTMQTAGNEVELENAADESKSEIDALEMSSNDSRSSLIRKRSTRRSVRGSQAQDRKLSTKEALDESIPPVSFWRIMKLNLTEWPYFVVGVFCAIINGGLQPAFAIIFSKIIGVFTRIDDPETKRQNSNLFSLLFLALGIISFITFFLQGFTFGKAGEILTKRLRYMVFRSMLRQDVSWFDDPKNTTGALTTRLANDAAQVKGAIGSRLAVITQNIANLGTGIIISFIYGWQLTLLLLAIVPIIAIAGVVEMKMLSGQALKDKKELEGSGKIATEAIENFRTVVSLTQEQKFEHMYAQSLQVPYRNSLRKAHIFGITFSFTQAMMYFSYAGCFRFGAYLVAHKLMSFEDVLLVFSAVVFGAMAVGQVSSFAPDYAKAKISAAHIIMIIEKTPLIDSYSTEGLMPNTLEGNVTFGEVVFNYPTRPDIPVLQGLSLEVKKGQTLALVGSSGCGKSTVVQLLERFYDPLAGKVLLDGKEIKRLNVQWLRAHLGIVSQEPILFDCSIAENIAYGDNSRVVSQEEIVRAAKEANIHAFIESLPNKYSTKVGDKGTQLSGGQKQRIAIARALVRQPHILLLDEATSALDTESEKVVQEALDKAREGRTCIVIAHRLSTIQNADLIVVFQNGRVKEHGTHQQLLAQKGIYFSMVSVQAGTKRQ

## COc1ccc(-c2c(-c3ccc(C#N)c(F)c3)nc(N3CCC(N)CC3)n(C)c2=O)cc1F [Compound A]
[1]
  primary findings: Marked thrombocytopenia and acute hemorrhage in mesenteric and mandibular lymph nodes
[2]; 1.5 mg base/kg PO QD × 53
  Median Tumor Volumes Day 46: 706.4 mm^3
[2]; 5 mg base/kg PO QD × 53
  Median Tumor Volumes Diff.: 836.3 mm^3
  Median Tumor Volumes Day 46: 673.2 mm^3
[3]; 15 mg base/kg IV
  mean plasma concentration at end of infusion: 4269 ng/mL
[3]; 20 mg base/kg IV
  mean plasma concentration at end of infusion: 6707 ng/mL
[3]; 20 mg base/kg IV, 9 minutes into 10-minute infusion
  maximum decrease in HR vs vehicle: 19%
[3]; [14]
  decrease in heart rate at end of monitoring period: 18%
  increase of QTcB interval at end of monitoring period: 10%
[4]
  mutagenicity: negative for mutagenicity
[5]
  ST18 and FREM2 change in gene expression in vivo: ≥ 2 fold
[6]
  predicted steady state systemic exposure (AUCt): 29 ng·h/mL
MS-1 hMCC xenograft
  Median Tumor Volumes Day-15: 129 mm^3
[7]; single IV 5 mg base/kg
  AUC∞: 733 ng·h/mL
  CL: 115 mL/min/kg
  Vss: 0.2625 L/kg
  t1/2,z: 3.6 h
[7]; single oral 5 mg base/kg
  % F: 33%
  AUClast: 222 ng·h/mL
  Cmax: 47 ng/mL
  t1/2,z: 3.0 h
  tmax: 2.0 h
[7]; single oral 15 mg base/kg
  % F: 28%
  AUClast: 570 ng·h/mL
  Cmax: 123 ng/mL
  t1/2,z: 2.9 h
  tmax: 2.0 h
[7]; single oral 50 mg base/kg
  % F: 74%
  AUClast: 4652 ng·h/mL
  Cmax: 621 ng/mL
  t1/2,z: 3.0 h
  tmax: 6.0 h
[8]
  ST18 and FREM2 gene expression changes (upregulated): at least 2 fold
[9]; 5 mg base/kg PO QD × 28
  % TGI: 43%
[9]; 10 mg base/kg PO QD × 28
  % TGI: 61%
[10]; [15]
  mean steady state AUC0-24: 2,410 ng·hr/mL
  mean steady state Cmax: 276 ng/mL
[10]; [16]
  mean steady state AUC0-24: 2,010 ng·hr/mL
  mean steady state Cmax: 276 ng/mL
[10]; [17]
  mean steady state AUC0-24: 17,500 ng·hr/mL
  mean steady state Cmax: 1,740 ng/mL
[10]; 25 mg base/kg/dose QOD×3/week, males
  mean steady state Cmax: 1,450 ng/mL
[10]; 45 mg base/kg/dose QD×5/week, 4 males and 1 female, TK subgroup
  animals sacrificed in moribund condition: Five
[10]; [18]
  mean steady state AUC0-24: 26,500 ng·hr/mL
  mean steady state Cmax: 2,130 ng/mL
[10]; [19]
  mean steady state AUC0-24: 29,000 ng·hr/mL
  mean steady state Cmax: 2,620 ng/mL
[10]; Day 1, 5 mg base/kg/dose oral, 5 days on/2 days off, F
  AUC0-24: 1500 ng·h/mL
[10]; Day 1, 5 mg base/kg/dose oral, 5 days on/2 days off, M
  Cmax: 230 ng/mL
[10]; [20]
  AUC0-24: 9680 ng·h/mL
  Cmax: 850 ng/mL
[10]; Day 1, 15 mg base/kg/dose oral, 5 days on/2 days off, M
  AUC0-24: 13000 ng·h/mL
[10]; [21]
  AUC0-24: 2410 ng·h/mL
  Cmax: 276 ng/mL
[10]; [22]
  AUC0-24: 2010 ng·h/mL
  Cmax: 275 ng/mL
[10]; [23]
  AUC0-24: 7960 ng·h/mL
  Cmax: 628 ng/mL
[10]; [24]
  AUC0-24: 17500 ng·h/mL
  Cmax: 1740 ng/mL
[10]; [25]
  AUC0-24: 17800 ng·h/mL
  Cmax: 1450 ng/mL
[10]; [26]
  AUC0-24: 26500 ng·h/mL
  Cmax: 2130 ng/mL
[10]; [27]
  AUC0-24: 29000 ng·h/mL
  Cmax: 2620 ng/mL
[10]; QD ×5/week schedule
  STD10: ≥ 45 mg base/kg/dose
[11]
  ST18 and FREM2 change in gene expression in vivo: ≥ 2 fold
[12]; 5 mg base/kg PO QD × 28
  % TGI: 72%
[12]; 5 mg base/kg oral
  TGI: 78%
[12]; 7.5 mg base/kg oral
  TGI: 58%
[12]; 10 mg base/kg PO QD × 28
  % TGI: 71%
[12]; 10 mg/kg oral
  TGI: 71%
[12]; mouse, in vivo
  mean body weight losses: ≤ 3%
[13]
  permeability: 16.5 ×10⁻⁶ cm/s

— patent US10960005B2, “Treatment of relapsed and/or refractory solid tumors and non-hodgkin's lymphomas” (CELGENE QUANTICEL RESEARCH, INC., priority 2016, dated 2021)
